Patent US20160101076A1, “Use of Sumoylation Inhibitors for Treating Cancer” (priority 2013, published 2016)

Assays:
BT-549 cells = experiment: CD44 Western blot and CD44+/CD24-/low FACS in BT-549 cells; assay type: cell-based, human; details: for ability to repress CD44 expression with knockdown of TFAP2A: BT549 cells, TFAP2A siRNA, Western blot FIG. 6C; for CD44+/CD24-/low population by FACS analysis / CD44 expression by Western blot: BT-549 cells, FIG. 6A, 10 μM, 2-4 days
Protocol: (§1) The human breast cancer cell lines (MCF-7, SKBR-3, BT-20, BT-549, MCF-10A) were obtained from American Type Culture Collection. sKD-C cells were subcloned from parental MCF-7 cells with stable knockdown of TFAP2C as described (Cyr et al., 2014). ER<-positive tumors and the basal cancer tumor were obtained from surgical resection specimens. Cell suspensions were prepared with gentle collagenase/hyaluronidase (Stemcells) (Ponti et al., 2005). A new cell line was established from the basal tumor cells, called IOWA-1T (manuscript in preparation).
(§2) Western blots were performed as previously described (Cyr et al., 2014; Kulak et al., 2013). For immunoprecipitations anti-TFAP2A, anti-GFP antibody (Life Technologies) or IgG (#sc-2025, Santa Cruz Biotechnology) were cross-linked with Dynabeads protein A (Life Technologies). MCF7 protein was incubated with Dynabeads protein A-Abs complex, protein complexes were washed with DPBS (Gibco) with 0.01% Tween (Research Products International Corp.), and eluted with SDS loading buffer.
(§3) Cells were plated ([…]/10 cm2) and treated with 10 μM gingolic or anacardic acid (Sigma) for 2-4 days and collected for qPCR, Western blot and FACS analysis.
(§4) FACS analysis was performed as previously described (Roederer and Hardy, 2001).

[1] = tested on: cells derived from a primary basal cancer; experiment: CD44 Western blot and CD44+/CD24-/low FACS in cells from a primary basal breast cancer; assay type: cell-based, human; details: for CD44 expression by Western blot: cells derived from a primary basal cancer, FIG. 6A; for CD44+/hi/CD24-/low CSC population: cells harvested from primary basal breast tumor refractory to chemotherapy, treated in vitro, FACS FIG. 6A
Protocol: In addition, cells from a primary basal breast cancer were treated in vitro in parallel. The cancer was from a patient with locally advanced breast cancer that was refractory to conventional chemotherapy. Remarkably, treatment with GA or AA cleared the CD44^+/hi/CD24^−/low CSC population from the cells harvested from the primary tumor (FIG. 6A, last panel). By contrast, GA/AA treatment of MCF-10A cells, a normal breast cell line model, had no effect on CD44 expression and had no effect on the percentage of cells expressing stem cell markers.
as §1, §2, §3, §4

MCF-10A cells = experiment: CD44 expression and stem cell markers in normal breast cell line MCF-10A; assay type: cell-based, human; details: MCF-10A normal breast cell line
Protocol: as §1, §2, §3, §4

BT20 xenografts = BT20 xenografts from cells pretreated before inoculation; assay type: in vivo; details: BT20 cells pretreated for 48 hours prior to inoculation in nude mice; FIG. 8A
Source text: FIGS. 8A-8D. SUMO Inhibitors Repressed Outgrowth of Xenografts. FIG. 8A. […] FIG. 8B. Tumor-free survival of nude mice (n=5 per group) inoculated with BT20 cells with animals gavaged with AA vs. vehicle. FIG. 8C. IOWA-1T cells were pre-treated with anacardic acid (AA) or vehicle and mice were followed until requiring euthanasia due to tumor size (Overall Survival). […] FIG. 8D. Nude mice were inoculated with 1×10^6, 5×10^5, or 2.5×10^5 IOWA-1T cells and animals were gavaged with either vehicle or AA; vehicle-gavaged mice developed tumors in 5, 10 and 12 days, respectively.
To address the effects of GA and AA on tumor initiation, BT20 cells were pretreated with GA or AA compared to vehicle prior to inoculation of xenografts in nude mice. As noted in FIG. 8A, pretreatment of the cells repressed the formation of tumor xenografts, whereas, vehicle treated cells formed xenografts with a median time of 8 weeks. […] We created a breast carcinoma cell line (IOWA-1T) from the basal tumor-derived cells used in FIG. 6A. The IOWA-1T cell line rapidly forms locally advanced tumors in nude mice. Identical experiments using the IOWA-1T basal cell line confirmed that either pre-treating the cancer cells or gavaging animals with AA repressed tumor initiation of xenografts (FIGS. 8C and 8D). […]

Structure (SMILES) | ability to repress CD44 expression with knockdown of TFAP2A (BT-549 cells) | CD44+/CD24-/low population by FACS analysis (BT-549 cells) | CD44 expression by Western blot (BT-549 cells) | CD44 expression by Western blot [1] | CD44+/hi/CD24-/low CSC population [1] | CD44 expression (MCF-10A cells) | percentage of cells expressing stem cell markers (MCF-10A cells) | formation of tumor xenografts (tumor free survival) (BT20 xenografts)
CCCCCC/C=C\CCCCCCCc1cccc(O)c1C(=O)O [GA, (Z)-6-(Pentadec-8-enyl)-2-hydroxybenzoic acid] | completely eliminated | significantly reduced | inhibited | inhibited | cleared | no effect | no effect | repressed
CCCCCCCCCCCCCCCc1cccc(O)c1C(=O)O [AA, Anacardic acid (C15:0)] | completely eliminated | significantly reduced | inhibited | inhibited | cleared | no effect | no effect | repressed
